Reference: US20240041042A1, “1-(PYRIDYL)-5-AZINYLPYRAZOLE DERIVATIVES, AND THEIR USE FOR CONTROL OF UNDESIRED PLANT GROWTH” (Bayer Aktiengesellschaft, priority 2020, published 2024)
Where two headings read alike, the source gives them in different places.

Experiments:
Assay type in all cases: in vivo
Oryza sativa (ORYSA) [1] = settings: crop plant compatibility, effect in comparison to untreated controls
Procedure, shortened: (§1)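 Visual rating (% effect vs. untreated plants; 100% = plant death) made about 3 weeks after treatment. Plants had been sprayed at one-leaf stage, 2–3 weeks post-sowing, with aqueous WP/EC preparations containing 0.5% additive, 600 l/ha water volume; a, b, c mark dose levels.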

Zea mays (ZEAMX) [2] = settings: crop plant compatibility, 80 g/ha, effect vs untreated controls
Procedure, shortened: as §1

[3] = system: Matricaria inodora (MATIN); assay: Post-emergence herbicidal action against MATIN; settings: dosage 320 g/ha
Procedure, shortened: (§2)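 Doses of 320 g/ha or lower, suffixes a, b and c marking different dosages, were applied post-emergence at the one-leaf stage in 600 l/ha water with 0.5% additive. Damage was assessed visually after about 3 weeks in the greenhouse.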

Zea mays (ZEAMX) [4] = settings: pre-emergence, 80 g/ha, crop plant compatibility, in comparison to untreated controls
Procedure, shortened: (§3)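 Crop injury rated visually in percent against untreated plants roughly 3 weeks after treatment (0% no effect, 100% plants dead). Compounds, as WP or EC with 0.5% additive in 600 l/ha water, were applied to the covering soil right after sowing; greenhouse growth. Suffixes a, b, c denote different dosages.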

[5] = system: Triticum aestivum (TRZAS); settings: pre-emergence, crop plant compatibility, in comparison to untreated controls
Procedure, shortened: as §3

Lolium rigidum (LOLRI) [6] = assay: Pre-emergence herbicidal action against LOLRI; settings: dosage 320 g/ha
Procedure, shortened: (§4)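 Pre-emergence soil-surface spray, WP/EC formulation, 0.5% additive, 600 l/ha water, rates of 320 g/ha or lower. Greenhouse, ~3 wk. Visual score, % of untreated control (100% = plants dead, 0% = like control).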

[7] = system: Digitaria sanguinalis (DIGSA); assay: Pre-emergence herbicidal action against DIGSA; settings: dosage 320 g/ha
Procedure, shortened: as §4

[8] = system: Amaranthus retroflexus (AMARE); assay: Pre-emergence herbicidal action against AMARE; settings: 320 g/ha, visual scoring after about 3 weeks vs untreated controls
Procedure, shortened: as §4

[9] = system: Amaranthus retroflexus (AMARE); assay: Post-emergence herbicidal action against AMARE; settings: 320 g/ha, visual rating about 3 weeks after treatment
Procedure, shortened: as §2

[10] = system: Polygonum convolvulus (POLCO); assay: Post-emergence herbicidal action against POLCO; settings: dosage 320 g/ha
Procedure, shortened: as §2

[11] = system: Verconica persica (VERPE); assay: Post-emergence herbicidal action against VERPE
Procedure, shortened: as §2

[12] = system: Pharbitis purpurea (PHBPU); assay: Post-emergence herbicidal action against PHBPU
Procedure, shortened: as §2

[13] = system: Pharbitis purpurea (PHBPU); assay: Pre-emergence herbicidal action against PHBPU; settings: dosage 320 g/ha
Procedure, shortened: as §4

Lolium rigidum (LOLRI) [14] = assay: Post-emergence herbicidal action against LOLRI; settings: dosage 320 g/ha
Procedure, shortened: as §2

[15] = system: Verconica persica (VERPE); assay: Pre-emergence herbicidal action against VERPE; settings: dosage 320 g/ha
Procedure, shortened: as §4

[16] = system: Triticum aestivum (TRZAS); settings: crop plant compatibility, 80 g/ha, effect vs untreated controls
Procedure, shortened: as §1

Oryza sativa (ORYSA) [17] = settings: pre-emergence, crop plant compatibility, in comparison to untreated controls
Procedure, shortened: as §3

Setaria viridis (SETVI) [18] = assay: Pre-emergence herbicidal action against SETVI
Procedure, shortened: as §4

[19] = system: Polygonum convolvulus (POLCO); assay: Pre-emergence herbicidal action against POLCO; settings: dosage 320 g/ha
Procedure, shortened: as §4

[20] = system: Matricaria inodora (MATIN); assay: Pre-emergence herbicidal action against MATIN; settings: dosage 320 g/ha
Procedure, shortened: as §4

[21] = system: Echinochloa crus-galli (ECHCG); assay: Post-emergence herbicidal action against ECHCG; settings: dosage 320 g/ha
Procedure, shortened: as §2

Setaria viridis (SETVI) [22] = assay: Post-emergence herbicidal action against SETVI
Procedure, shortened: as §2

Viola tricolor (VIOTR) [23] = assay: Post-emergence herbicidal action against VIOTR; settings: 320 g/ha
Procedure, shortened: as §2

[24] = system: Alopecurus myosuroides (ALOMY); assay: Post-emergence herbicidal action against ALOMY; settings: 320 g/ha, visual rating about 3 weeks after treatment vs untreated controls (100% = plants have died, 0% = like control plants)
Procedure, shortened: as §2

Viola tricolor (VIOTR) [25] = assay: Pre-emergence herbicidal action against VIOTR; settings: 320 g/ha, Viola tricolor
Procedure, shortened: as §4

[26] = system: Abutilon theophrasti (ABUTH); assay: Post-emergence herbicidal action against ABUTH; settings: 320 g/ha, visual rating about 3 weeks after treatment vs untreated controls (100% = plants have died, 0% = like control plants)
Procedure, shortened: as §2

[27] = system: Echinochloa crus-galli (ECHCG); assay: Pre-emergence herbicidal action against ECHCG; settings: dosage 320 g/ha
Procedure, shortened: as §4

Avena fatua (AVEFA) = assay: Post-emergence herbicidal action against AVEFA; settings: 320 g/ha, visual rating about 3 weeks after treatment
Procedure, shortened: as §2

Compound | Post-emergence action against ORYSA in % (Oryza sativa (ORYSA) [1]; 80 g/ha) | Post-emergence action against ORYSA in % (Oryza sativa (ORYSA) [1]; 320 g/ha) | Pre-emergence action against ZEAMX in % (Zea mays (ZEAMX) [4]) | Pre-emergence action against TRZAS in % ([5]; 80 g/ha) | Pre-emergence action against LOLRI in % (Lolium rigidum (LOLRI) [6]) | Pre-emergence action against AMARE in % [8] | Post-emergence action against AMARE in % [9] | Post-emergence action against POLCO in % [10] | Post-emergence action against VERPE in % ([11]; 320 g/ha, VERPE) | Post-emergence action against PHBPU in % ([12]; dosage 320 g/ha) | Post-emergence action against LOLRI in % (Lolium rigidum (LOLRI) [14]) | Post-emergence action against TRZAS in % [16] | Pre-emergence action against ORYSA in % (Oryza sativa (ORYSA) [17]; 80 g/ha) | Pre-emergence action against SETVI in % (Setaria viridis (SETVI) [18]; dosage 320 g/ha) | Pre-emergence action against POLCO in % [19] | Pre-emergence action against MATIN in % [20] | Post-emergence action against ECHCG in % [21] | Post-emergence action against ALOMY in % [24] | Pre-emergence action against VIOTR in % (Viola tricolor (VIOTR) [25]) | also measured
O=C(O)COc1nn(-c2ccccn2)c(-c2ccc(Cl)nc2)c1Cl [Example I-236] | 0% | 0% | 20% | 20% | 90% | 80% | 80% | 80% | 80% | 80% | – | – | – | – | – | – | – | – | – | Post-emergence action against ZEAMX in % (Zea mays (ZEAMX) [2]): 0%; Post-emergence action against MATIN in % [3]: 80%; Pre-emergence action against DIGSA in % [7]: 90%
COCCOC(=O)COc1nn(-c2cccc(C)n2)c(-c2ccc(F)nc2)c1Cl [Example I-279] | 10% | – | – | 20% | 80% | – | – | – | 90% | 80% | 80% | 10% | 0% | 90% | 80% | 80% | 80% | – | – | Pre-emergence action against PHBPU in % [13]: 100%; Pre-emergence action against VERPE in % [15]: 80%; Post-emergence action against VERPE in % ([11]; dosage 80 g/ha): 80%; Post-emergence action against PHBPU in % ([12]; dosage 80 g/ha): 80%; Post-emergence action against SETVI in % (Setaria viridis (SETVI) [22]; dosage 80 g/ha): 80%; Post-emergence action against SETVI in % (Setaria viridis (SETVI) [22]; dosage 320 g/ha): 80%
CCOC(=O)COc1nn(-c2ccncc2)c(-c2ccc(F)nc2)c1Br [III-08] | 0% | 0% | – | 0% | – | 80% | 80% | 80% | – | – | – | 0% | 0% | – | – | – | – | 80% | 90% | Pre-emergence action against ORYSA in % (Oryza sativa (ORYSA) [17]; 320 g/ha): 0%; Pre-emergence action against TRZAS in % ([5]; 320 g/ha): 0%; Post-emergence action against VIOTR in % (Viola tricolor (VIOTR) [23]): 80%
CCOC(=O)COc1nn(-c2ccccn2)c(-c2ccc(F)nc2)c1[N+](=O)[O-] [Example I-359] | 0% | 0% | 10% | 0% | 80% | 90% | 90% | 80% | – | 80% | 80% | – | – | 100% | 80% | 90% | 80% | 90% | 100% | Pre-emergence action against SETVI in % (Setaria viridis (SETVI) [18]; dosage 80 g/ha): 90%; Post-emergence action against ABUTH in % [26]: 80%; Pre-emergence action against ECHCG in % [27]: 80%; Post-emergence action against AVEFA in % (Avena fatua (AVEFA)): 90%
